From ChEMBL document CHEMBL1125783, “Novel 1-phenylcycloalkanecarboxylic acid derivatives as potential anticonvulsant agents” (1991)
Values joined by “and” are separate entries in the source; they are usually repeats but may differ in a detail not shown here. Equal entries are not always repeated. Active and inactive are the calls of the source. The calls are words filed in the database; no cut-off is given here.

tested on: Rattus norvegicus; experiment: Anticonvulsant activity in rats using MES (maximal electroshock) after subcutaneous administration; IA-Inactive up to dose of 50 mg/kg; type: functional, organism-based; parameters: dose 50 mg/kg; details: not given

Compound	ED50
CCN(CC)CCOCCNCC1(c2ccccc2)CCCC1	inactive
CCN(CC)CCOCCN(C)CC1(c2ccccc2)CCCC1	inactive
CCN(CC)CCOCCNC(=O)C1(c2ccccc2)CCCCC1	inactive
CCN(CC)CCOCCNC(=O)C1(c2ccccc2)CCCC1	inactive
CCN(CC)CCOCCNCC1(c2ccccc2)CCCCC1	inactive

tested on: Rattus norvegicus; experiment: Anticonvulsant activity in rats, using MES(maximal electroshock), after subcutaneous administration.; type: functional; details: sc

Compound	ED50 [µmol/kg]
CCN(CC)CCOCCOCC1(c2ccccc2)CCCCC1	86
O=C1NC(=O)C(c2ccccc2)(c2ccccc2)N1 [PHENYTOIN]	30

tested on: Rattus norvegicus; experiment: Anticonvulsant activity in rats using MES (maximal electroshock) after subcutaneous administration; type: functional; details: sc

Compound	ED50
CCN(CC)CCOCCOC(=O)C1(c2ccccc2)CCCCC1	93 mg/kg and 173 µmol/kg
CCN(CC)CCOCCOCC1(c2ccccc2)CCCCC1	37 mg/kg
CCN(CC)CCOCCOCC1(c2ccccc2)CCCC1	7 mg/kg and 16 µmol/kg
O=C1NC(=O)C(c2ccccc2)(c2ccccc2)N1 [PHENYTOIN]	8 mg/kg
CCN(CC)CCOCCOC(=O)C1(c2ccccc2)CCCC1 [CARBETAPENTANE]	25 mg/kg and 48 µmol/kg
